Measured values as given in PMC9589054, “One-step synthesized antimicrobial peptide-functionalized gold nanoclusters for selective imaging and killing of pathogenic bacteria” (Frontiers in Microbiology, 2022).
Ends that are not written are not given here.

Legend:
Experiment in all cases: Plate bactericidal experiment (colony counting)
Type in all cases: cell-based
Conditions in all cases: 22-712 μg/ml tested
[1] = system: Acinetobacter baumannii (A. baumannii) ATCC 19606
[2] = system: Escherichia coli (E. coli) ATCC 25922
Method: (§1) The Escherichia coli (E. coli) ATCC 25922, Staphylococcus aureus (S. aureus) ATCC 25923, and Acinetobacter baumannii (A. baumannii) ATCC 19606 used in our experiments were preserved in our laboratory. Bacteria were cultured in LB liquid medium at 37°C for 8–12 h. Then, the cultures were centrifuged at 4,000 rpm for 5 min and washed three times with PBS. Eventually, the bacterial solutions were diluted to different concentrations for testing (10–1.00 × 10^9 cfu/ml). First, 100 μl of CWR11-AuNC solution was added to an E. coli or S. aureus suspension (1 × 10^5 cfu/ml). After 1 h of incubation, 10 μl of bacterial suspension was inoculated on an LB solid agar plate and placed at 37°C for 24 h before the number of colonies was counted. In addition, different concentrations of CWR11-AuNCs were added to the bacterial suspensions (McFarland turbidity of 0.5) and placed at 37°C for 18–24 h. Bacterial viability was determined by measuring the absorbance at 600 nm.

[3] = system: Staphylococcus aureus (S. aureus) ATCC 25923
Method: as §1

CWFWKWWRRRRR [CWR11]
significantly reduced the activity: effect on activity of A. baumannii [1] | effect on activity of E. coli [2] | effect on activity of S. aureus [3]
